Like-named read-outs stand apart in the source and are kept apart here.
Experiments:
SARS-CoV-2 nsp3-mac1 [1] = biological target: T1, SARS-CoV-2 nsp3-mac1 (Severe acute respiratory syndrome coronavirus 2, UniProt P0DTD1); experiment: biochemical; format: biochemical; conditions: SARS-CoV-2 nsp3 macrodomain TR-FRET single point, n=2
SARS-CoV-2 nsp3-mac1 [2] = biological target: T1, SARS-CoV-2 nsp3-mac1; experiment: biochemical; design: SARS-CoV-2 nsp3 macrodomain TR-FRET single point, per cent inhibition, n=2
[3] = read-out: perc_inhibition_mean, batch_name=ASAP-0000285-001
[4] = read-out: perc_inhibition_mean, batch_name=ASAP-0000286-001
[5] = read-out: perc_inhibition_mean, batch_name=ASAP-0000287-001
[6] = read-out: perc_inhibition_mean, batch_name=ASAP-0000288-001
[7] = read-out: perc_inhibition_mean, batch_name=ASAP-0000289-001
[8] = read-out: perc_inhibition_mean, batch_name=ASAP-0000290-001
[9] = read-out: perc_inhibition_mean, batch_name=ASAP-0000291-001
[10] = read-out: perc_inhibition_mean, batch_name=ASAP-0000292-001
[11] = read-out: perc_inhibition_mean, batch_name=ASAP-0000293-001
[12] = read-out: perc_inhibition_mean, batch_name=ASAP-0000294-001
[13] = read-out: perc_inhibition_mean, batch_name=ASAP-0000295-001
[14] = read-out: perc_inhibition_mean, batch_name=ASAP-0000296-001
[15] = read-out: perc_inhibition_mean, batch_name=ASAP-0000297-001
[16] = read-out: perc_inhibition_mean, batch_name=ASAP-0000298-001
[17] = read-out: perc_inhibition_mean, batch_name=ASAP-0000299-001
[18] = read-out: perc_inhibition_mean, batch_name=ASAP-0000300-001
[19] = read-out: perc_inhibition_mean, batch_name=ASAP-0000301-001

Row | SMILES | perc_inhibition_mean (SARS-CoV-2 nsp3-mac1 [1]; concentration 49.75 uM) [%] | perc_inhibition_mean (SARS-CoV-2 nsp3-mac1 [1]; concentration 99.5 uM) [%] | other results
1 | O=C(c1ncc[nH]1)N1CCC(c2ccn3ncc(C(=O)N4CCCCC4)c3c2)CC1 [ASAP-0000285] | 18.474 | 37.203 | inhibition at 49.75 µM (SARS-CoV-2 nsp3-mac1 [2]; [3]): 18.5%; inhibition at 99.5 µM (SARS-CoV-2 nsp3-mac1 [2]; [3]): 37.2%
2 | CCn1cnc(Nc2ncnc3c2ncn3Cc2cc(OC)no2)c1 [ASAP-0000286] | -16.725 | -12.789 | inhibition at 49.75 µM (SARS-CoV-2 nsp3-mac1 [2]; [4]): -16.7%; inhibition at 99.5 µM (SARS-CoV-2 nsp3-mac1 [2]; [4]): -12.8%
3 | O=C(Nc1ccccc1)Nc1ccc(C(=O)N2CCc3ccncc32)cc1 [ASAP-0000287] | -4.305 | 0.234 | inhibition at 49.75 µM (SARS-CoV-2 nsp3-mac1 [2]; [5]): -4.3%; inhibition at 99.5 µM (SARS-CoV-2 nsp3-mac1 [2]; [5]): 0.234%
4 | O=C(Nc1ccccc1)Nc1ccc(C(=O)N2CCOCC23CCC3)cc1 [ASAP-0000288] | -5.176 | -3.184 | inhibition at 49.75 µM (SARS-CoV-2 nsp3-mac1 [2]; [6]): -5.18%; inhibition at 99.5 µM (SARS-CoV-2 nsp3-mac1 [2]; [6]): -3.18%
5 | C[C@H](NC(=O)c1ccc(NC(=O)Nc2ccccc2)cc1)[C@@H]1CCCO1 [ASAP-0000289] | -4.279 | -4.858 | inhibition at 49.75 µM (SARS-CoV-2 nsp3-mac1 [2]; [7]): -4.28%; inhibition at 99.5 µM (SARS-CoV-2 nsp3-mac1 [2]; [7]): -4.86%
6 | O=C1C[C@H](CNC(=O)c2ccc(NC(=O)Nc3ccccc3)cc2)CCN1 [ASAP-0000290] | 1.223 | 4.013 | inhibition at 49.75 µM (SARS-CoV-2 nsp3-mac1 [2]; [8]): 1.22%; inhibition at 99.5 µM (SARS-CoV-2 nsp3-mac1 [2]; [8]): 4.01%
7 | C[C@H](NC(=O)c1ccc(NC(=O)Nc2ccccc2)cc1)c1ccccn1 [ASAP-0000291] | 2.448 | 0.349 | inhibition at 49.75 µM (SARS-CoV-2 nsp3-mac1 [2]; [9]): 2.45%; inhibition at 99.5 µM (SARS-CoV-2 nsp3-mac1 [2]; [9]): 0.349%
8 | CN(C(=O)c1ccc(NC(=O)Nc2ccccc2)cc1)[C@@H]1CN2CCC1CC2 [ASAP-0000292] | -4.01 | 2.773 | inhibition at 49.75 µM (SARS-CoV-2 nsp3-mac1 [2]; [10]): -4.01%; inhibition at 99.5 µM (SARS-CoV-2 nsp3-mac1 [2]; [10]): 2.77%
9 | CN1CCO[C@H](CNC(=O)c2ccc(NC(=O)Nc3ccccc3)cc2)C1 [ASAP-0000293] | -0.616 | 3.272 | inhibition at 49.75 µM (SARS-CoV-2 nsp3-mac1 [2]; [11]): -0.616%; inhibition at 99.5 µM (SARS-CoV-2 nsp3-mac1 [2]; [11]): 3.27%
10 | Nc1ncnc2c1ncn2Cc1cccc2ncnn12 [ASAP-0000294] | -0.553 | -3.161 | inhibition at 49.75 µM (SARS-CoV-2 nsp3-mac1 [2]; [12]): -0.553%; inhibition at 99.5 µM (SARS-CoV-2 nsp3-mac1 [2]; [12]): -3.16%
11 | O=C(Nc1ccccc1)Nc1ccc(C(=O)N2CCc3nc[nH]c3C2)cc1 [ASAP-0000295] | -3.024 | -2.379 | inhibition at 49.75 µM (SARS-CoV-2 nsp3-mac1 [2]; [13]): -3.02%; inhibition at 99.5 µM (SARS-CoV-2 nsp3-mac1 [2]; [13]): -2.38%
12 | O=C(Nc1ccccc1)Nc1ccc(C(=O)N[C@H]2CC[C@H](CO)CC2)cc1 [ASAP-0000296] | -0.639 | -2.577 | inhibition at 49.75 µM (SARS-CoV-2 nsp3-mac1 [2]; [14]): -0.639%; inhibition at 99.5 µM (SARS-CoV-2 nsp3-mac1 [2]; [14]): -2.58%
13 | CC1(C)CN(C(=O)c2ccc(NC(=O)Nc3ccccc3)cc2)C[C@@]1(F)C(=O)O [ASAP-0000297] | -2.566 | -5.193 | inhibition at 49.75 µM (SARS-CoV-2 nsp3-mac1 [2]; [15]): -2.57%; inhibition at 99.5 µM (SARS-CoV-2 nsp3-mac1 [2]; [15]): -5.19%
14 | O=C(CCN(Cc1cccc(Cl)c1)C(=O)C1(F)CCCCC1)N1CCNCC1 [ASAP-0000298] | -3.576 | 0.185 | inhibition at 49.75 µM (SARS-CoV-2 nsp3-mac1 [2]; [16]): -3.58%; inhibition at 99.5 µM (SARS-CoV-2 nsp3-mac1 [2]; [16]): 0.185%
15 | CCN(Cc1cccnc1)C(=O)c1ccc(NC(=O)Nc2ccccc2)cc1 [ASAP-0000299] | 3.632 | -7.091 | inhibition at 49.75 µM (SARS-CoV-2 nsp3-mac1 [2]; [17]): 3.63%; inhibition at 99.5 µM (SARS-CoV-2 nsp3-mac1 [2]; [17]): -7.09%
16 | Cc1n[nH]cc1CN(C)C(=O)c1ccc(NC(=O)Nc2ccccc2)cc1 [ASAP-0000300] | -3.77 | -0.031 | inhibition at 49.75 µM (SARS-CoV-2 nsp3-mac1 [2]; [18]): -3.77%; inhibition at 99.5 µM (SARS-CoV-2 nsp3-mac1 [2]; [18]): -0.031%
17 | C[C@@H]1CN(C(=O)c2ccc(NC(=O)Nc3ccccc3)cc2)CC(=O)N1 [ASAP-0000301] | -0.707 | 0.29 | inhibition at 49.75 µM (SARS-CoV-2 nsp3-mac1 [2]; [19]): -0.707%; inhibition at 99.5 µM (SARS-CoV-2 nsp3-mac1 [2]; [19]): 0.29%

Source: article doi:10.1101/2024.08.19.608619, “Discovery of potent SARS-CoV-2 nsp3 macrodomain inhibitors uncovers lack of translation to cellular antiviral response” (bioRxiv, 2024)
